In patent US7557573B2, “NMR-based methods for detecting ligands, where the ligand or target are hyperpolarized and the NMR-spectrum is compared with a reference spectrum of the ligand or target” (GE Healthcare AS, priority 2002, dated 2009):

Columns and labels:
Urease = test: Hyperpolarised 13C-urea NMR assay of enzymatic conversion and its inhibition; details: 10, 12 and 14 units urease, substrate concentration constant
Description: The frozen sample was hyperpolarised for one hour (DNP method). The sample was dissolved in a phosphate buffer (10 mM, pH 7.6, 100° C., 8.5 ml (active dissolution volume 3 ml)) and 500 μl were transferred to a 10 mm NMR tube containing 2.5 ml of a solution (same buffer as for urea) containing 12 units urease (0.1 mg). A series of 40 one-dimensional ^13C spectra were collected as one every 3 s, with a reduced flip angle (15°).
It is possible to calibrate the flip angle, and the relaxation rate for urea is known. […] Another way of calculating the reaction rate for the system is to vary the enzyme concentration while keeping the concentration of substrate constant.
The latter approach was used in a series of experiments that were performed as described above, only the concentration of urease was varied. Three experiments were performed with 10 units, 12 units and 14 units urease. The urease activity was plotted as a function of concentration. From this plot, the reaction rate constant was extracted directly. The NMR signal intensities of urea in the individual experiments have been used to calculate the enzymatic activity.

[1] = system: Src homology domain 2 from growth binding hormone; test: Hyperpolarised (DNP) 13C-NMR binding assay, ligand free vs bound signals; details: target to ligand ratio 4:1, ligand 24 μM, 25° C., single scan
Description: The sample was placed in the polariser and hyperpolarised overnight (17 h) at 93.934 GHz and 100 mW (DNP method). The sample was brought into solution with phosphate buffer (pH 6.5, 100 mM, 60° C., 8.5 ml). The active dissolution volume was 3 ml with 90% recovery of substance, providing a final concentration of 5.7 μM. […] A liquid state NMR spectrum was acquired in one scan with a 90° pulse angle and acquisition time of 1 s. One NMR signal was obtained at 176.9 ppm from the ^13C-labeled ligand. The signal-to-noise ratio (SNR) of the spectrum was 50.
940 μl of the target solution (100 μM target, 5 mM DTT, 100 mM NaCl, 50 mM phosphate pH 6.5) was placed in 10 mm NMR tube with a bottom plug, reducing the active volume to […]. The tube was placed in a 9.4 T magnet with the temperature of the probe equilibrated to 25° C. A tube was connected to the bottom of the NMR tube to allow for injection of the ligand solution into the target solution.
The sample was placed in the polariser and hyperpolarised overnight (17 h) at 93.934 GHz and 100 mW (DNP method). […]
In this example, the target to ligand concentration ratio was 4:1. […] By varying the ligand to target concentration in the assay it would thus be possible to measure the binding affinity by quantifying the relative amounts of free and bound ligand visible in the spectra based on the knowledge of ligand/target concentrations used in the assay.

[2] = system: Src homology domain 2 from growth binding hormone; details: cited from earlier work

| Compound | rate constant for the system (enzymatic conversion of urea) (Urease) [s⁻¹] | NMR signals of hyperpolarised ligand in mixture with target (free/bound) [1] | exchange regime of ligand with the target [2] |
| --- | --- | --- | --- |
| NC(N)=O [urea] | 0.0019 | – | – |
| (1-^13C)—Ac—EpYINQ—NH2 | – | two signals, one from the unbound ligand (176.94 ppm) and one from the bound ligand (176.2 ppm) | slow exchange with the target |
